Reference: patent US11952369B2 (Kadmon Corporation, LLC, priority 2022, dated 2024)
Where two headings read alike, the source gives them in different places.

Assays:
ROCK2 = target: T1, ROCK2 (Rattus norvegicus, UniProt Q62868); experiment: Inhibition of ROCK2 enzymatic activity, immunoabsorbed full length enzyme, S6 kinase substrate peptide, [γ33P]ATP; type: biochemical; settings: for Ki: ROCK2
T1 construct: Full length rat ROCK1 and ROCK2 proteins were isolated from various tumor cell lines or tissues by immunoabsorption; endogenous in cells
T1 sequence (Q62868 whole entry): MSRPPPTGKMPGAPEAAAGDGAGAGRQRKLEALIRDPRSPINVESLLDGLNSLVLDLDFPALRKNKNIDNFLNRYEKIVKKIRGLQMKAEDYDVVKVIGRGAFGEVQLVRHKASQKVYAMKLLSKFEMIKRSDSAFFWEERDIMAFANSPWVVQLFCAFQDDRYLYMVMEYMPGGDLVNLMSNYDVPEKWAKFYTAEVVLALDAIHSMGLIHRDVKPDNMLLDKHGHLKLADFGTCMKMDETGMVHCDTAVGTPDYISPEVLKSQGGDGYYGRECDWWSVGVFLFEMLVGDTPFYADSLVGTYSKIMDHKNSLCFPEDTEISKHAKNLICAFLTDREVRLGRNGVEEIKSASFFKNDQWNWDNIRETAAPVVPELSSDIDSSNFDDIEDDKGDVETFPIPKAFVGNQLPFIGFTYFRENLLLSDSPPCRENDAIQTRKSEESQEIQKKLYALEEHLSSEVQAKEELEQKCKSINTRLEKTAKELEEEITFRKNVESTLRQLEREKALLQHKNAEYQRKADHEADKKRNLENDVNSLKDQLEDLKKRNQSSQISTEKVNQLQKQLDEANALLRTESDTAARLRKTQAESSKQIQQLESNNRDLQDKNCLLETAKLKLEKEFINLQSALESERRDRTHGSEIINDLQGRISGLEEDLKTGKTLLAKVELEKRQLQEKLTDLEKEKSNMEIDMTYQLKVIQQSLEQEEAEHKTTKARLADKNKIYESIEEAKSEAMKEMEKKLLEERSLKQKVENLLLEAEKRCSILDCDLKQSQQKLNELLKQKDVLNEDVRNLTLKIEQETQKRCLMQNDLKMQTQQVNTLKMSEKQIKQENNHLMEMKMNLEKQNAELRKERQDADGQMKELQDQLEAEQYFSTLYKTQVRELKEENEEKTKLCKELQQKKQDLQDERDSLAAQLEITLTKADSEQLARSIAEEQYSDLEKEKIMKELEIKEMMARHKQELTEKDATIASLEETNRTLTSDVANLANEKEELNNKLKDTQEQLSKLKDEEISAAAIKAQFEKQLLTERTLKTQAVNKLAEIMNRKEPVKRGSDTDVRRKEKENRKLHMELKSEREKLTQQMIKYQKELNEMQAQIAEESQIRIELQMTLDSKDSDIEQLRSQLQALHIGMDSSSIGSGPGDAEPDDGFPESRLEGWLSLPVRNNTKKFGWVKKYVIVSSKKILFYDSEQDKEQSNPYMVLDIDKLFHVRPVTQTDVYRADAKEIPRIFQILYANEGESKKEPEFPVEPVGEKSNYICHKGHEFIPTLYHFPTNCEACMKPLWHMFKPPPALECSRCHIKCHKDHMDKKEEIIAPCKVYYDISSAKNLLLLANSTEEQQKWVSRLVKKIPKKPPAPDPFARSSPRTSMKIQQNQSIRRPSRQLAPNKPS
Experimental: Full length rat ROCK1 and ROCK2 proteins were isolated from various tumor cell lines or tissues by immunoabsorption to 24-well microtiter plates pre-coated with antibodies specific for each isozyme. Reactions were initiated by the addition of S6 kinase substrate peptide, [γ33P]ATP, and study drug, and incubated at 37° C. for 20 minutes. Reactions were terminated by addition of phosphoric acid and the radioactivity was quantified using standard methods.

cytochrome P450 CYP3A4 = cytochrome P450 CYP3A4 (Homo sapiens, UniProt P08684); experiment: In vitro assessments of belumosudil metabolism; type: in vitro ADME
Chain of cytochrome P450 CYP3A4 (P08684 whole entry): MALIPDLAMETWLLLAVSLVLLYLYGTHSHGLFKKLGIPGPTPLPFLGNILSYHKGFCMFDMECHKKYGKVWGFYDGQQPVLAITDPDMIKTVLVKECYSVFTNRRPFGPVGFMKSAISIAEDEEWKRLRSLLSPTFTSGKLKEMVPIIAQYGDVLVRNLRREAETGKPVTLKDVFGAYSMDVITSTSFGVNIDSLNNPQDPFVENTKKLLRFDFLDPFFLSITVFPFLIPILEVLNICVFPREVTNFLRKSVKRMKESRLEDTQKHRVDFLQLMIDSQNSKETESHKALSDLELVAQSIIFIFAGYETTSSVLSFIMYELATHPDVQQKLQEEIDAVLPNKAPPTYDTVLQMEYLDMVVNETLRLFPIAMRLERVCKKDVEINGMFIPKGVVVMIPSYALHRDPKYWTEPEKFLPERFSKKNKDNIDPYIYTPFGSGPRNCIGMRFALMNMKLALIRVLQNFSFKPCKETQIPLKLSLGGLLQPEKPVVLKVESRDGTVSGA

Solubility = type: physicochemical; settings: in vitro assessments
[1] = Phase 1 study part 1: absolute bioavailability, oral 200-mg tablet plus [14C]-belumosudil IV microtracer, plasma PK; type: in vivo, human; settings: for F, AUCinf (absolute bioavailability, AUCinf,oral/AUCinf,IV): dose-adjusted
Experimental: This was a single-center, nonrandomized, open-label, 2-part study in 5 healthy male subjects aged 30 to 65 years. All oral doses were administered following an overnight fast and a standard breakfast on the day of dosing.
(timed to occur at the expected maximum concentration [Cmax]). To determine absolute bioavailability, a microtracer dose was chosen as it negates the need for an IV formulation with good stability. Additionally, due to use of a very low dose, further nonclinical studies such as local tolerance and general toxicology studies were not warranted.
Blood samples for IV [^14C]-belumosudil PK analysis and total radioactivity were collected at −0.25, −0.16, −0.08, 0, 0.08, 0.16, 0.25, 0.5, 0.75, 1, 1.5, 2, 3, 4, 5, 6, 8, 10, 12, 22, 34, and 46 hours after the end of infusion (EOI). All samples were processed to plasma within 30 minutes of collection by centrifugation at 2000 g for 10 minutes at 4° C., and
Total [^14C]-belumosudil concentrations were determined by accelerator mass spectrometry (AMS). […] Selected samples were diluted with commercial plasma to ensure that concentrations would fall within the acceptable range for AMS analysis. The samples were converted to graphite through combustion to CO2 followed by reduction to graphite. The graphite targets were then analyzed by AMS (LLOQ of 0.00489, 0.00557, 0.00485, 0.00402, and 0.00372 ng equiv/mL for individual subjects). All ^14C data was background-corrected based on predose [^14C]-belumosudil concentrations.
Eluate fractions corresponding to [^14C]-belumosudil were collected before AMS analysis (LLOQ of 1.55 pg equiv/mL).
PK parameter estimates were used to calculate absolute bioavailability and metabolite-to-parent ratio.

[2] = Phase 1 study part 2: metabolite identification and profiling in plasma, urine and feces; type: in vivo, human; settings: mean across subjects
Experimental: To determine the most appropriate sampling pools for metabolite identification/profiling, plasma, urine, and fecal samples were pooled based on mass balance data obtained as described above. Plasma samples were pooled for individual subjects by time points that represented at least 80% of the plasma total radioactivity, as well as pooled across subjects before dosing and at 4-hour and 8-hour time points. Urine samples were pooled from 0 to 24 hours for individual subjects and across subjects for predose and 0- to 6-hour intervals. Fecal samples were pooled for individual subjects depending on time points that represented at least 80% of the […] total radioactivity and across subjects at 0- to 24- and 24- to 48-hour intervals.
[^14C]-belumosudil concentrations were quantified by LC-MS/MS. Chemical structures were then identified for those radioactive components that accounted for >10% of circulating radioactivity in plasma and >10% of the dose in urine and feces. Radioactive components that represented <10% of circulating radioactivity in plasma and <10% of the dose in urine and feces were also identified. Metabolite identification was then performed using accurate mass positive and negative ion full scan and positive ion product ion analyses. […] Any identified components were compared with [^14C] radiochromatograms to identify the metabolite. Predose plasma and urine pools were used to correct for endogenous components during metabolite identification.

[3] = Phase 1 study: safety assessments; type: in vivo, human
Experimental: Safety was assessed throughout the study by AEs, vital signs, electrocardiograms, physical examinations, and clinical laboratory tests. The safety population included all subjects who received at least 1 dose of the study drug (oral or IV) in either part of the study.

[4] = Metabolite exposure quantified in clinical trials of the belumosudil development program; type: in vivo, human; settings: clinical trials across the belumosudil development program
[5] = arithmetic mean (standard deviation), Part 1, belumosudil after oral 200-mg tablet
[6] = arithmetic mean (standard deviation), Part 1, oral 200-mg tablet vs IV microtracer
[7] = geometric mean (geometric CV %), Part 1, belumosudil after oral 200-mg tablet
[8] = geometric mean (geometric CV %), Part 1, oral 200-mg tablet vs IV microtracer

## CC(C)NC(=O)COc1cccc(-c2nc(Nc3ccc4[nH]ncc4c3)c3ccccc3n2)c1 [Belumosudil, 2-{3-[4-(1H-indazol-5-ylamino)-2-quinazolinyl]phenoxy}-N-(propan-2-yl) acetamide]
ROCK2
  Ki: 40 ± 5 nM
Cytochrome P450 CYP3A4
  enzyme dependence of metabolism: primarily dependent on cytochrome P450 CYP3A4 activity
Solubility
  pH dependence of solubility: pH dependent
[1]; Part 1, oral 200-mg tablet
  time at which peak belumosudil concentrations were reached after the oral dose: 3 h
[1]; [5]
  AUCextrap: 2.18 (0.919) %
  AUCinf: 8890 (4240) ng or ng equiv × h/mL
  AUClast: 8730 (4270) ng or ng equiv × h/mL
  Clearanance (apparent clearance): 423 (126) mL/min
  Cmax: 1960 (649) ng or ng equiv/mL
[1]; [6]
  F, AUCinf (absolute bioavailability): 64.5 (10.4) %
  F, Cmax (bioavailability): 23.8 (2.21) %
[1]; [7]
  AUCextrap: 1.95 (64.6); %
  AUCinf: 8300 (40.2); ng or ng equiv × h/mL
  AUClast: 8120 (41.2); ng or ng equiv × h/mL
  Clearanance (apparent clearance): 402 (40.2); mL/min
  Cmax: 1870 (36.7); ng or ng equiv/mL
[1]; [8]
  F, Cmax (bioavailability): 23.7(9.3); %
  F, AUCinf (absolute bioavailability, AUCinf,oral/AUCinf,IV): 63.7 (17.3); %
[1]; geometric mean (geometric CV %), Part 1, oral 200-mg tablet vs IV microtracer, listed as belumosudil
  F, AUCinf (absolute bioavailability, AUCinf,oral/AUCinf,IV): 63.7%
[1]; male, human, plasma, other: intravenous and oral, IV and oral dosing comparable, read-out: half-life values following IV and oral dosing
  half-life: 5 to 6 h
[1]; male, human, plasma, po, 200 mg
  Tmax: 2 h
[1]; male, human, plasma, po, 200 mg, arithmetic mean (standard deviation), Part 1, belumosudil after oral 200-mg tablet, read-out: T1/2 (converted)
  half-life: 6.05 h
[1]; male, human, plasma, po, 200 mg, geometric mean (geometric CV %), Part 1, belumosudil after oral 200-mg tablet, read-out: T1/2 (terminal half-life) (converted)
  half-life: 5.3 h
[2]
  % ROI, feces (mean % contribution to total sample radioactivity): (29.60) %
  % ROI, plasma (mean % contribution to total plasma radioactivity): P6 (64.17) %
[2]; listed as belumosudil
  % ROI, feces (mean % contribution to total sample radioactivity): 30%
  % ROI, plasma (mean % contribution to total plasma radioactivity): 64%
[3]; either part of the study
  laboratory, vital sign, electrocardiogram, physical examination findings: No clinically significant laboratory, vital sign, electrocardiogram, or physical examination findings
[3]; healthy male subjects, both parts of the study
  deaths, serious AEs, severe AEs, AEs leading to withdrawal: no deaths, serious AEs, AEs of severe intensity, or AEs leading to subject withdrawal
[3]; part 1, 200-mg tablet followed by [14C]-belumosudil microtracer infusion, one event, resolved spontaneously 2.5 hours after onset
  treatment-emergent AE: mild, possibly related rash
[3]; part 2, 200-mg [14C]-belumosudil capsule
  treatment-emergent AEs: no treatment-emergent AEs were reported

## NC(=O)COc1cccc(-c2nc(Nc3ccc4[nH]ncc4c3)c3ccccc3n2)c1 [KD025m1, 2-(3-(4-(1H-indazol-5-ylamino)quinazolin-2-yl)phenoxy)acetamide]
ROCK2
  Ki: 55 ± 2 nM
ROCK2; fold lower inhibition than belumosudil
  inhibition of ROCK2 (Ki) relative to belumosudil: comparable
[4]
  exposure relative to the parent: < 5%
